Data on 4 compounds can be found in PMC6201272 (Journal of natural products, 2016).

Some results are limits rather than exact numbers.

One data set concerns S. aureus ATCC 43300. Nature of the data set: MIC determination. Type of data set: cell-based, Staphylococcus aureus. Conditions: duplicate, at least two independent experiments.
The subject of another data set is E.faecium ATCC 29212. Nature of the data set: MIC determination. Type of data set: cell-based, Enterococcus faecium. To be noted: duplicate, at least two independent experiments.
The next data set deals with S. aureus ATCC 29213. Briefly: MIC determination. Type of data set: cell-based, Staphylococcus aureus. To be noted: duplicate, at least two independent experiments.
Another data set deals with E. coli ATCC 25922. Briefly: MIC determination. To be noted: for Minimum inhibitory concentration, E. coli ATCC 25922: MIC, duplicate, at least two independent experiments. Type of data set: cell-based, Escherichia coli.
In data set [1] the test system is monkey kidney cell line (BSC-1). Nature of the data set: Cytotoxicity against monkey kidney cell line BSC-1. Type of data set: cell-based.
A further data set deals with E.faecium ATCC 51299. Nature of the data set: MIC determination. Conditions: duplicate, at least two independent experiments. Type of data set: cell-based, Enterococcus faecium.
The test system of a further data set is C. albicans ATCC 28517. Briefly: MIC determination, C. albicans ATCC 28517. Type of data set: cell-based.
Another data set relates to P. aeruginosa ATCC 27853. Nature of the data set: MIC determination, P. aeruginosa ATCC 27853. Type of data set: cell-based.
For data set [2], the system named is bacteria (broad-spectrum). To be noted: cited from earlier work.
Data set [3] deals with bacterial strains and cell lines of Table 3. Briefly: Cytotoxity and antibacterial activity, all assays. Type of data set: cell-based.
Data set [4] has as its system human colorectal tumor cell line (HCT-116). Nature of the data set: Cytotoxicity against human colorectal tumor cell line HCT-116. Conditions: maximum tested concentration 50 μg/mL. Type of data set: cell-based.

For “1-(4′,5′,6′-Tribromo-1′-methoxyphenoxy)-3,5-dibromo-2-methoxybenzene [Compound 5a]”, in the data set on S. aureus ATCC 43300, the “Minimum inhibitory concentration, S. aureus ATCC 43300” value is greater than 50 µg/mL. The “Minimum inhibitory concentration, E.faecium ATCC 29212” value in the data set on E.faecium ATCC 29212 is greater than 50 µg/mL. For the same compound, the “Minimum inhibitory concentration, S. aureus ATCC 29213” value in the data set with S. aureus ATCC 29213 was greater than 50 µg/mL. Further, the “Minimum inhibitory concentration, E. coli ATCC 25922” value in the data set with E. coli ATCC 25922 is greater than 50 µg/mL. The “Cytotoxicity Bsc-1 (IC50)” value in data set [1] is greater than 50 µg/mL. In the data set with E.faecium ATCC 51299, the “Minimum inhibitory concentration, E.faecium ATCC 51299” value was greater than 50 µg/mL. For the same compound, the “Minimum inhibitory concentration, C. albicans ATCC 28517” value in the data set with C. albicans ATCC 28517 is greater than 50 µg/mL. Further, the “Minimum inhibitory concentration, P. aeruginosa ATCC 27853” value in the data set with P. aeruginosa ATCC 27853 was greater than 50 µg/mL.
`Oc1c(Br)cc(Br)cc1Oc1ccc(Br)cc1Br` [Compound 10]: the “Antibacterial activity previously reported (in words)” value in data set [2] is “broad-spectrum antibacterial activity”. Moreover, the “Inhibition of growth of E. coli (in words)” value in the data set on E. coli ATCC 25922 (authors' antimicrobial assays) was “did not inhibit the growth”.
For the compound `COc1c(Br)cc(Br)cc1Oc1c(Br)c(OC)c(Br)c(Br)c1OC` [Compound 8a, 1-(3′,5′,6′-Tribromo-1′,4′-dimethoxy-1′-phenoxy)-3,5-dibromo-2-methoxybenzene], the “Cytotoxity and antibacterial activity in all assays (in words)” value in data set [3] was “inactive in all assays”. Also, in [4], the “Toxicity against HCT-116 (in words)” value is reported as “nontoxic”.
Regarding “1-(3′,4′,6′-Tribromo-1′-methoxyphenoxy)-3,5-dibromo-2-methoxybenzene [Compound 3a]”, the “Minimum inhibitory concentration, S. aureus ATCC 43300” value in the data set with S. aureus ATCC 43300 is greater than 50 µg/mL. Further, the “Minimum inhibitory concentration, E.faecium ATCC 29212” value in the data set on E.faecium ATCC 29212 was 50 µg/mL. The “Minimum inhibitory concentration, S. aureus ATCC 29213” value in the data set with S. aureus ATCC 29213 was greater than 50 µg/mL. The “Minimum inhibitory concentration, E. coli ATCC 25922” value in the data set with E. coli ATCC 25922 is greater than 50 µg/mL. Moreover, the “Cytotoxicity Bsc-1 (IC50)” value in [1] was greater than 50 µg/mL. Moreover, in the data set with E.faecium ATCC 51299, the “Minimum inhibitory concentration, E.faecium ATCC 51299” value was greater than 50 µg/mL. For the same compound, in the data set with C. albicans ATCC 28517, the “Minimum inhibitory concentration, C. albicans ATCC 28517” value is greater than 50 µg/mL. The “Minimum inhibitory concentration, P. aeruginosa ATCC 27853” value in the data set with P. aeruginosa ATCC 27853 was greater than 50 µg/mL.
